The NIST ThermoML archive (doi:10.1016/j.jct.2017.05.006)
Numbers after ± are expanded uncertainties.

Assay: osmotic coefficient (dimensionless); mn = molality of the nth substance listed, in mol/kg
Conditions: 298.15 K, Liquid, isopiestic method

O=[N+]([O-])[O-].O=[N+]([O-])[O-].[Mg+2] [magnesium nitrate] + O
Conditions	osmotic coefficient
m1 = 0.7578	1.015 ± 0.005
m1 = 0.855	1.032 ± 0.0058
m1 = 0.9755	1.071 ± 0.009
m1 = 1.067	1.103 ± 0.0066
m1 = 1.126	1.115 ± 0.0072
m1 = 1.15	1.122 ± 0.0076
m1 = 1.187	1.13 ± 0.013
m1 = 1.191	1.135 ± 0.0096
m1 = 1.234	1.143 ± 0.008
m1 = 1.309	1.172 ± 0.011
m1 = 1.395	1.196 ± 0.0091

O=S(=O)([O-])[O-].[Mg+2] [magnesium sulfate] + O
Conditions	osmotic coefficient
m1 = 1.562	0.586 ± 0.016
m1 = 1.585	0.593 ± 0.016
m1 = 1.607	0.595 ± 0.016
m1 = 1.643	0.601 ± 0.015
m1 = 1.7	0.609 ± 0.015
m1 = 1.742	0.617 ± 0.015
m1 = 1.803	0.625 ± 0.015
m1 = 1.884	0.641 ± 0.014
m1 = 2.007	0.665 ± 0.013
m1 = 2.132	0.692 ± 0.012
m1 = 2.243	0.714 ± 0.011
m1 = 2.385	0.746 ± 0.01
